Structures can show the parent of a compound that is named as a salt.
Each compound was assayed on agonist-induced platelet aggregation (assay: Platelet Aggregation Assay). Conditions: Homo sapiens, Platelet, human platelet-rich plasma, class symbols.
Format: cell-based
Method: Platelet Aggregation Assay: Venous blood was obtained from the arm of a healthy human donor who was drug-free and aspirin-free for at least two weeks prior to blood collection. Blood was collected into 10 mL citrated Vacutainer tubes. The blood was centrifuged for 15 minutes at 150×g at room temperature, and platelet-rich plasma (PRP) was removed. The remaining blood was centrifuged for 15 minutes at 1500×g at room temperature, and platelet-poor plasma (PPP) was removed. […] The results are expressed as % inhibition of agonist-induced platelet aggregation. For the IC50 evaluation, the test compounds were added at various concentrations prior to the activation of the platelets.

SMILES	IC50 [µM]
CCOC(=O)COC(=O)c1cc(/C=C/C(=O)c2cccc(OCCN)c2)ccc1OCC(=O)O [Example 27, (E)-(2-Ethoxy-2-oxoethyl) 5-[3-((3-(2-amino-ethoxy)phenyl))-3-oxo-1-propenyl]-2-(carboxymethoxy)-benzoate.trifluoroacetate]	51 to 100
NCCOc1cccc(C(=O)/C=C/c2ccc(OCC(=O)O)c(C(=O)OCc3ccccc3)c2)c1 [Example 28, (E)-Benzyl 5-[3-((3-(2-aminoethoxy)phenyl))-3-oxo-1-propenyl]-2-(carboxymethoxy)benzoate.trifluoroacetate]	51 to 100
NCCOc1cccc(C(=O)CCc2ccc(OCC(=O)O)cc2)c1 [Example 126, 4-[3-((3-(2-Aminoethoxy)phenyl))-3-oxo-1-propyl]phenoxyacetic acid.hydrochloride]	51 to 100
COC(=O)c1cc(/C=C/C(=O)c2cccc(OCCN)c2)ccc1OCC(=O)O [Example 30]	10 to 50
CCOC(=O)c1cc(/C=C/C(=O)c2cc(OCC)cc(OCCN)c2)ccc1OCC(=O)O [Example 20, (E)-Ethyl 5-[3-((3-(2-aminoethoxy)-5-ethoxyphenyl))-3-oxo-1-propenyl]-2-(carboxymethoxy)benzoate.trifluoroacetate]	10 to 50
NCCOc1ccc(OCc2ccccc2)c(C(=O)/C=C/c2ccc(OCC(=O)O)c(C(=O)OCC(=O)O)c2)c1 [Example 43]	< 10
CCCCOC(=O)c1cc(/C=C/C(=O)c2cccc(OCCN)c2)ccc1OCC(=O)O [Example 24, (E)-n-Butyl 5-[3-((3-(2-aminoethoxy)-phenyl))-3-oxo-1-propenyl]-2-(carboxymethoxy)benzoate-trifluoroacetate]	10 to 50
NCCOc1cccc(C(=O)/C=C/c2ccc(OCC(=O)O)c([N+](=O)[O-])c2)c1 [Example 26, (E)-4-[3-((3-(2-Aminoethoxy)phenyl))-3-oxo-1-propenyl]-2-nitrophenoxyacetic acid.trifluoroacetate]	< 10
CCOC(=O)c1cc(/C=C/C(=O)c2cccc(OCCN)c2)ccc1OCC(=O)O [Example 2, (E)-Ethyl 5-[3-((3-(2-aminoethoxy)phenyl))-3-oxo-1-propenyl]-2-(carboxymethoxy)benzoate.trifluoroacetate]	10 to 50
NCCOc1cccc(C(=O)/C=C/c2ccc(OCC(=O)O)c(C(=O)OCC(=O)O)c2)c1 [Example 25, (E)-(Carboxymethyl) 5-[3-((3-(2aminoethoxy)-phenyl))-3-oxo-1-propenyl]-2-(carboxymethoxy)benzoate.trifluoroacetate]	< 10
CNCCOc1cccc(C(=O)/C=C/c2ccc(OCC(=O)O)c(OC)c2)c1 [Example 121, (E)-4-[[3-[3-((2-(methylamino)ethoxy))-phenyl]-3-oxo-1-propenyl]]-2-methoxyphenoxyacetic acid.trifluoroacetate]	10 to 50
COc1cc(OCC(=O)O)ccc1/C=C/C(=O)c1cccc(OCCN)c1 [Example 65, (E)-4-[3-((3-(2-Aminoethoxy)phenyl))-3-oxo-1-propenyl]-3-methoxyphenoxyacetic acid.hydrochloride]	10 to 50
NCCOc1cccc(C(=O)/C=C/c2ccc(OCC(=O)O)c(OCC(=O)O)c2)c1 [Example 29, (E)-4-[3-((3-(2-Aminoethoxy)phenyl))-3-oxo-1-propenyl]benzene-1,2-bis(oxyacetic acid).trifluoroacetate]	10 to 50
CCOc1cc(OCCN)cc(C(=O)/C=C/c2ccc(OCC(=O)O)cc2)c1 [Example 21, (E)-4-[3-((3-(2-Aminoethoxy)-5-ethoxyphenyl))-3-oxo-1-propenyl]phenoxyacetic acid.trifluoroacetate]	10 to 50
CCOc1cc(/C=C/C(=O)c2cccc(OCCN)c2)ccc1OCC(=O)O [Example 22, (E)-4-[3-((3-(2-Aminoethoxy)phenyl))-3-oxo-1-propenyl]-2-ethoxyphenoxyacetic acid.trifluoroacetate]	< 10
C=CCOc1ccc(OCCN)cc1C(=O)/C=C/c1ccc(OCC(=O)O)c(C(=O)OCC(=O)O)c1 [Example 44, (E)-(Carboxymethyl) 5-((3-((2-(1-prop-2-enyloxy)-5-(2-aminoethoxy)phenyl))-3-oxo-1-propenyl))-2-(carboxymethoxy)benzoate.trifluoroacetate]	< 10
COc1cc(/C=C/C(=O)c2cccc(CNC(=N)N)c2)ccc1OCC(=O)O [Example 112, (E)-4-[3-((3-(guanidinylmethyl)phenyl))-3-oxo-1-propenyl]-2-methoxyphenoxyacetic acid.trifluoroacetate]	10 to 50
COc1cc(/C=C/C(=O)c2cccc(N3CCNCC3)c2)ccc1OCC(=O)O [Example 120]	< 10
CCOc1cc(/C=C/C(=O)c2cccc(CCN)c2)ccc1OCC(=O)O [Example 91, (E)-4-[3-((3-(2-Aminoethyl)phenyl))-3-oxo-1-propenyl]-2-ethoxyphenoxyaceticacid trifluoroacetate]	51 to 100
NCCOc1cccc(C(=O)/C=C/c2ccc(OCC(=O)O)c(-c3ccccc3)c2)c1 [Example 75c]	51 to 100
C=CCOc1ccc(OCCN)cc1C(=O)/C=C/c1ccc(OCC(=O)O)c(C(=O)OCC)c1 [Example 3, (E)-Ethyl 5-[3-((2-(1-prop-2-enyloxy)-5-(2aminoethoxy)phenyl))-3-oxo-1-propenyl]-2-(carboxymethoxy)benzoate.trifluoroacetate]	< 10
COc1cc(/C=C/C(=O)c2cccc(OCCN)c2)ccc1OCC(=O)O [Example 23]	< 10
NCc1cccc(C(=O)/C=C/c2ccc(OCC(=O)O)c(OCC(=O)O)c2)c1 [Example 76]	51 to 100

Same assay, conditions: Homo sapiens, Platelet, human platelet-rich plasma, numeric bound

SMILES	IC50 [µM]
COc1cc(C(=O)/C=C/c2cccc(OCCN)c2)ccc1OCC(=O)O [Example 211, (E)-4-[3-((3-(2-aminoethoxy)phenyl))-1-oxo-prop-2-enyl]-2-methoxyphenoxyacetic acid.trifluoroacetate]	> 100
NCCCCc1ccc(C(=O)/C=C/c2ccc(CCC(=O)O)cc2)cc1 [Example 243]	> 100
NCc1ccc(C(=O)/C=C/c2ccc(OCC(=O)O)c([N+](=O)[O-])c2)cc1 [Example 250]	> 100
NCc1cccc(C(=O)/C=C/c2cccc(OCC(=O)O)c2)c1 [Example 244]	> 100
C=CCc1cc(/C=C/C(=O)c2cccc(OCCN)c2)cc(C(=O)OC)c1OCC(=O)O [Example 75b]	> 100
NCCc1cccc(C(=O)/C=C/c2ccc(OCC(=O)O)c([N+](=O)[O-])c2)c1 [Example 93]	> 100
NCCCCc1ccc(C(=O)/C=C/c2ccc(OCC(=O)O)cc2)cc1 [Example 241]	> 100
NCCc1cccc(C(=O)/C=C/c2ccc([N+](=O)[O-])c(OCC(=O)O)c2)c1 [Example 240]	> 100
CN(C)CCOc1cccc(C(=O)/C=C/c2cccc(C(=O)O)c2)c1 [Example 248]	> 100
COc1ccc(/C=C/C(=O)c2cccc(OCCN)c2)cc1CC(=O)O [Example 252]	> 100
NCc1cccc(C(=O)/C=C/c2ccc(OCC(=O)O)cc2)c1 [Example 125a]	> 100
NCc1ccc(C(=O)/C=C/c2ccc(CCC(=O)O)cc2)cc1 [Example 245]	> 100
CCOC(=O)c1cc(/C=C/C(=O)c2cccc(C#CCN)c2)ccc1OCC(=O)O [Example 247]	> 100
NCCOc1cccc(C(=O)/C=C/c2ccc(OCCC(=O)O)cc2)c1 [Example 242]	> 100
CCOC(=O)c1cc(/C=C/C(=O)c2ccccc2OCCCN)ccc1OCC(=O)O [Example 251]	> 100

Same assay, conditions: human platelet-rich plasma, 100 μM

SMILES	inhibition at 100 µM [%]
NCCc1cccc(C(=O)/C=C/c2ccc(OCC(=O)O)c([N+](=O)[O-])c2)c1 [Example 93]	21
CN(C)CCOc1cccc(C(=O)/C=C/c2cccc(C(=O)O)c2)c1 [Example 248]	13
COc1ccc(/C=C/C(=O)c2cccc(OCCN)c2)cc1CC(=O)O [Example 252]	38
NCc1ccc(C(=O)/C=C/c2ccc(CCC(=O)O)cc2)cc1 [Example 245]	19
CCOC(=O)c1cc(/C=C/C(=O)c2ccccc2OCCCN)ccc1OCC(=O)O [Example 251]	18

Same assay, conditions: human platelet-rich plasma, class symbols

SMILES	IC50 [µM]
NCCOc1cccc(C(=O)/C=C/c2ccc(OCC(=O)O)cc2)c1 [Example 1, (E)-4-[3-((3-(2-Aminoethoxy)phenyl))-3-oxo-1-propenyl]phenoxyacetic acid.hydrochloride]	10 to 50
CCOC(=O)c1cc(/C=C/C(=O)c2cccc(CC(C)N)c2)ccc1OCC(=O)O (stereo not shown) [Example 101, (E)-Ethyl 5-[3-((3-(2-aminopropyl)phenyl))-3-oxo-1-propenyl]-2(carboxymethoxy)benzoate.trifluoroacetate]	10 to 50
NCCOc1cccc(C(=O)/C=C/c2ccc(OCC(=O)O)cc2)c1 [Example 75a]	51 to 100
